In patent US8586579B2, “Anellated pyridine compounds” (Hoffmann-La Roche Inc., priority 2010, dated 2013):
Where two headings read alike, the source gives them in different places.

How the values were obtained:
human D2 receptor = human D2 receptor (Homo sapiens (Human), UniProt P14416); test: Radioligand binding assay, [3H]-spiperone, human D2 receptor; conditions: membranes of HEK293 EBNA cells expressing human D2; 0.7 nM [3H]-spiperone
Description: (§1) HEK293 EBNA cells were transiently transfected with expression plasmids encoding for the human D2 or D3 or for the human 5-HT2A receptor, respectively. The cells were harvested 48 h post-transfection, washed three times with cold PBS and stored at −80° C. prior to use. The pellet was suspended in cold 50 mM Tris-HCl buffer comprising 10 mM EDTA (pH 7.4) and was homogenized with a Polytron (Kinematica AG, Basel, Switzerland) for 20-30 sec at 12.000 rpm. After centrifugation at 48.000×g for 30 min at 4° C., the pellet was resuspended in cold 10 mM Tris-HCl buffer comprising 0.1 mM EDTA (pH 7.4), homogenized, and centrifuged as above. This pellet was further resuspended in a smaller volume of ice cold 10 mM Tris-HCl buffer comprising 0.1 mM EDTA (pH 7.4) and homogenized with a Polytron for 20-30 sec at 12.000 rpm. The protein content of this homogenate was determined with the Bio-Rad (Bradford) Protein Assay (Biorad Laboratories GmbH, München, Germany) according to the instructions of the manufacturer using gamma globulin as the standard. This homogenate was stored at −80° C. in aliquots and thawed immediately prior to use.
(§2) Aliquots of membrane preparations were thawed at RT, resuspended in assay buffer (D2, D3: 50 mM Tris-HCl, 120 mM NaCl, 5 mM MgCl2, 1 mM EDTA, 5 mM KCl, 1.5 mM CaCl2, pH=7.4; 5-HT2A: 50 mM Tris-HCl, 10 mM MgCl2, 1 mM EGTA, pH=7.4), homogenized with a Polytron for 20-30 sec at 12.000 rpm and adjusted to a final concentration of approximately 7.5 μg protein/well (D2, D3) and 15 μg protein/well (5-HT2A), respectively.
(§3) The binding affinity (Ki) of the compounds was determined using radioligand binding. Membranes were incubated in a total volume of 200 μl with a fixed concentration of radioligand (final concentration approximately 0.7 nM [^3H]-spiperone for D2, 0.5 nM [^3H]-spiperone for D3, and 1.1 nM [^3H]-ketanserin for 5-HT2A) and ten concentrations of test compound in ranging between 10 μM-0.1 nM for 1 h at RT. […] The nonspecific binding was determined with equally composed reaction mixtures in the presence of 10 μM unlabelled spiperone. Per well 45 μl of Microscint 40 (Perkin Elmer, Schwerzenbach, Switzerland) was added, plates for sealed, shaken for 20 min and counted for 3 min on a Topcount Microplate Scintillation Counter (Can berra Packard SA, Zürich, Switzerland) with quenching correction.
(§4) The CPM value for each duplicate of a concentration of competing compound was averaged (y1), then the % specific binding was calculated according to the equation (((y1−non-specific)/(total binding−non-specific))×100). Graphs were plotted with the % specific binding using XLfit, a curve fitting program that iteratively plots the data using Levenberg-Marquardt algorithm. […] The affinity constant (K) was calculated using the Cheng-Prusoff equation Ki=(IC50/1+([L]/Kd), where [L] is the concentration of radioligand and Kd is the dissociation constant of the radioligand at the receptor as determined by the saturation isotherm.

human D3 receptor = human D3 receptor (Homo sapiens (Human), UniProt P35462); test: Radioligand binding assay, [3H]-spiperone, human D3 receptor; conditions: membranes of HEK293 EBNA cells expressing human D3; 0.5 nM [3H]-spiperone
human D3 receptor, sequence (P35462 whole entry): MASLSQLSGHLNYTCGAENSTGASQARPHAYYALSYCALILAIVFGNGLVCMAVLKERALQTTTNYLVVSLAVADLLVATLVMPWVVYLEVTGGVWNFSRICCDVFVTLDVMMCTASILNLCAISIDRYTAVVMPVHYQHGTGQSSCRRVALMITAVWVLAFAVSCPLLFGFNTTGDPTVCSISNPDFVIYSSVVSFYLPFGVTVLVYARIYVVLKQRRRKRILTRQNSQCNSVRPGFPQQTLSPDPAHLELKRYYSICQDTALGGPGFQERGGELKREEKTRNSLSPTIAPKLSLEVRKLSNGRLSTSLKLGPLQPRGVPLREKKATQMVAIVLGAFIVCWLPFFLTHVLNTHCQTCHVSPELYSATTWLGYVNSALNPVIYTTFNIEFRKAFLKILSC
Description: as §1, §2, §3
as §4, with “algorithm. The single site competition analysis equation used was y=A+((B−A)/(1+((x/C)D))), where y is the % specific binding, A is the minimum y, B is the maximum y, C is the IC50, x is the log 10 of the concentration of the competing compound and D is the slope of the curve (the Hill Coefficient).” for “algorithm.”

human 5-HT2A receptor = human 5-HT2A receptor (Homo sapiens (Human), UniProt P28223); test: Radioligand binding assay, [3H]-ketanserin, human 5-HT2A receptor
human 5-HT2A receptor, sequence (P28223 whole entry): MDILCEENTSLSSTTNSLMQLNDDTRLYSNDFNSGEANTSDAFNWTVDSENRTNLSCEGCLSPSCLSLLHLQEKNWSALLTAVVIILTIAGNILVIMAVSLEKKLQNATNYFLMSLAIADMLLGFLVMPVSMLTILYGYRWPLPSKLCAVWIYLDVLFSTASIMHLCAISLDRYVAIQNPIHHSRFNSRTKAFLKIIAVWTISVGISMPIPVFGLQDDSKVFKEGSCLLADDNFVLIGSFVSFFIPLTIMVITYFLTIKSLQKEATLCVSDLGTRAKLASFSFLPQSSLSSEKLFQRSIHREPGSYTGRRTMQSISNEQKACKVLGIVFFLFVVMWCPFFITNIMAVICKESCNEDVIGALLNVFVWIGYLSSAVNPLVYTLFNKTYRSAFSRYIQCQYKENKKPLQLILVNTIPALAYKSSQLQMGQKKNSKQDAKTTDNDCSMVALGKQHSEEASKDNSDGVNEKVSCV
Description: as §1, §2, §3
as §4, with “algorithm. The single site competition analysis equation used was y=A+((B−A)/(1+((x/C)D))), where y is the % specific binding, A is the minimum y, B is the maximum y, C is the IC50, x is the log 10 of the concentration of the competing compound and D is the slope of the curve (the Hill Coefficient).” for “algorithm.”

[1] = membranes of HEK293 EBNA cells expressing human 5-HT2A, 1.1 nM [3H]-ketanserin

human D2 receptor, sequence (P14416 whole entry): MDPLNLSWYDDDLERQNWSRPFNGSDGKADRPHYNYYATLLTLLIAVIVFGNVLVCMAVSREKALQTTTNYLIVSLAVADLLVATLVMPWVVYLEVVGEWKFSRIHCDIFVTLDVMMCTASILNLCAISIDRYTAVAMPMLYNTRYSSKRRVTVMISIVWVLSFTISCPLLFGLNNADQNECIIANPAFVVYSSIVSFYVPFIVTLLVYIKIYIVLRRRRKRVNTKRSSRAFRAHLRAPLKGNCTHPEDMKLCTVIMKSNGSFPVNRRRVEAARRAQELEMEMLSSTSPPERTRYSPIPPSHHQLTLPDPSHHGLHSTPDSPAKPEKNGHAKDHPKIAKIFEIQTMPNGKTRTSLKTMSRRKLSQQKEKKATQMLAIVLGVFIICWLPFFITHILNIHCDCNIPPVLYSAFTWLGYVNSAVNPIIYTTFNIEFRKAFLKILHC

| Structure (SMILES) | Ki (human D2 receptor) | Ki (human D3 receptor) | Ki (human 5-HT2A receptor; [1]) | melting point | Ki (human 5-HT2A receptor) |
| --- | --- | --- | --- | --- | --- |
| CO[C@@H](C)C(=O)N[C@H]1CC[C@H](CCN2CCN(c3nccc4c3CCO4)CC2)CC1 [Example 137, trans-(S)—N-(4-{2-[4-(2,3-Dihydro-furo[3,2-c]pyridin-4-yl)-piperazin-1-yl]-ethyl}-cyclohexyl)-2-methoxy-propionamide] | 788 nM | 252 nM | 20.1 nM | 158.5 °C | – |
| O=C(N[C@H]1CC[C@H](CCN2CCN(c3nccc4c3CCO4)CC2)CC1)c1ccc(-n2cccn2)cc1 [Example 126, trans-N-(4-{2-[4-(2,3-Dihydro-furo[3,2-c]pyridin-4-yl)-piperazin-1-yl]-ethyl}-cyclohexyl)-4-pyrazol-1-yl-benzamide] | 478 nM | 44.3 nM | 35.9 nM | 229 °C | – |
| Cc1cc(CC(=O)N[C@H]2CC[C@H](CCN3CCN(c4nccc5c4CCO5)CC3)CC2)on1 [Example 84, trans-N-(4-{2-[4-(2,3-Dihydro-furo[3,2-c]pyridin-4-yl)-piperazin-1-yl]-ethyl}-cyclohexyl)-2-(3-methyl-isoxazol-5-yl)-acetamide] | 1300 nM | 4.01 nM | 15.2 nM | 172.5 °C | – |
| N#CCC(=O)N[C@H]1CC[C@H](CCN2CCN(c3nccc4c3CCO4)CC2)CC1 [Example 59, trans-2-Cyano-N-(4-{2-[4-(2,3-dihydro-furo[3,2-c]pyridin-4-yl)-piperazin-1-yl]-ethyl}-cyclohexyl)-acetamide] | 702 nM | 7.74 nM | – | 188 °C | 15.7 nM |
| COCCC(=O)N[C@H]1CC[C@H](CCN2CCN(c3nc(C)cc4c3CCO4)CC2)CC1 [Example 103, trans-3-Methoxy-N-(4-{2-[4-(6-methyl-2,3-dihydro-furo[3,2-c]pyridin-4-yl)-piperazin-1-yl]-ethyl}-cyclohexyl)-propionamide] | 1490 nM | 11.8 nM | 255 nM | 178.5 °C | – |
| CC(=O)N[C@H]1CC[C@H](CCN2CCN(c3ncc(C)c4occc34)CC2)CC1 [Example 104, trans-N-(4-{2-[4-(7-Methyl-furo[3,2-c]pyridin-4-yl)-piperazin-1-yl]-ethyl}-cyclohexyl)-acetamide] | 1460 nM | 21.5 nM | 13.7 nM | 208 °C | – |
| Cc1cnc(N2CCN(CC[C@H]3CC[C@H](NC(=O)C4CCOCC4)CC3)CC2)c2c1OCC2 [Example 109, Tetrahydro-pyran-4-carboxylic acid trans-(4-{2-[4-(7-methyl-2,3-dihydro-furo[3,2-c]pyridin-4-yl)-piperazin-1-yl]-ethyl}-cyclohexyl)-amide] | 4510 nM | 98.7 nM | 19.7 nM | 223.5 °C | – |
| O=C(CCO)N[C@H]1CC[C@H](CCN2CCN(c3nccc4c3CCO4)CC2)CC1 [Example 41, trans-N-(4-{2-[4-(2,3-Dihydrofuro[3,2-c]pyridin-4-yl)-piperazin-1-yl]-ethyl}-cyclohexyl)-3-hydroxypropanamide] | 734 nM | 11.5 nM | – | 173 °C | 35.7 nM |
| Cc1nc(-c2cccc(C(=O)N[C@H]3CC[C@H](CCN4CCN(c5nccc6c5CCO6)CC4)CC3)c2)no1 [Example 127, trans-N-(4-{2-[4-(2,3-Dihydro-furo[3,2-c]pyridin-4-yl)-piperazin-1-yl]-ethyl}-cyclohexyl)-3-(5-methyl-[1,2,4]oxadiazol-3-yl)-benzamide] | 2150 nM | 19.5 nM | 48.9 nM | 218 °C | – |
| C/C=C/CC(=O)N[C@H]1CC[C@H](CCN2CCN(c3nccc4c3CCO4)CC2)CC1 [Example 81, (E)-Pent-3-enoic acid trans-(4-{2-[4-(2,3-dihydro-furo[3,2-c]pyridin-4-yl)-piperazin-1-yl]-ethyl}-cyclohexyl)-amide] | 945 nM | 12.9 nM | 22.8 nM | 175.5 °C | – |
| O=C(CC1(O)CCC1)N[C@H]1CC[C@H](CCN2CCN(c3nccc4c3CCO4)CC2)CC1 [Example 141, trans-N-(4-{2-[4-(2,3-Dihydro-furo[3,2-c]pyridin-4-yl)-piperazin-1-yl]-ethyl}-cyclohexyl)-2-(1-hydroxy-cyclobutyl)-acetamide] | 409 nM | 25.8 nM | – | 155 °C | 22.5 nM |
| Cc1cc(C(=O)N[C@H]2CC[C@H](CCN3CCN(c4nccc5c4CCO5)CC3)CC2)on1 [Example 85, 3-Methyl-isoxazole-5-carboxylic acid trans-(4-{2-[4-(2,3-dihydro-furo[3,2-c]pyridin-4-yl)-piperazin-1-yl]-ethyl}-cyclohexyl)-amide] | 397 nM | 31.1 nM | – | 218 °C | 15.7 nM |
| O=C(N[C@H]1CC[C@H](CCN2CCN(c3nccc4c3CCO4)CC2)CC1)c1ccccc1 [Example 44, trans-N-(4-{2-[4-(2,3-Dihydro-furo[3,2-c]pyridin-4-yl)-piperazin-1-yl]-ethyl}-cyclohexyl)-benzamide] | 481 nM | 7.66 nM | 7.63 nM | 207.5 °C | – |
| O=C(N[C@H]1CC[C@H](CCN2CCN(c3nccc4c3CCO4)CC2)CC1)c1ccc2ncccc2c1 [Example 128, Quinoline-6-carboxylic acid trans-(4-{2-[4-(2,3-dihydro-furo[3,2-c]pyridin-4-yl)-piperazin-1-yl]-ethyl}-cyclohexyl)-amide] | 501 nM | 20.5 nM | 23.2 nM | 227 °C | – |
| COC(C)CC(=O)N[C@H]1CC[C@H](CCN2CCN(c3nccc4c3CCO4)CC2)CC1 (stereo partly drawn) [Example 139, trans-N-(4-{2-[4-(2,3-Dihydro-furo[3,2-c]pyridin-4-yl)-piperazin-1-yl]-ethyl}-cyclohexyl)-3-methoxy-butyramide] | 801 nM | 40.6 nM | – | 167 °C | 30.4 nM |
| O=C(N[C@H]1CC[C@H](CCN2CCN(c3nccc4c3CCO4)CC2)CC1)C1CC1(F)F (stereo partly drawn) [Example 74, trans-2,2-Difluoro-cyclopropanecarboxylic acid (4-{2-[4-(2,3-dihydro-furo[3,2-c]pyridin-4-yl)-piperazin-1-yl]-ethyl}-cyclohexyl)-amide] | 438 nM | 23.8 nM | 17.3 nM | 184.5 °C | – |
| CCCCC(=O)N[C@H]1CC[C@H](CCN2CCN(c3nccc4c3CCO4)CC2)CC1 [Example 94, Pentanoic acid trans-(4-{2-[4-(2,3-dihydro-furo[3,2-c]pyridin-4-yl)-piperazin-1-yl]-ethyl}-cyclohexyl)-amide] | 1140 nM | 19.2 nM | 24.7 nM | 180.5 °C | – |
| CC(C)=CC(=O)N[C@H]1CC[C@H](CCN2CCN(c3nccc4c3CCO4)CC2)CC1 [Example 80, 3-Methyl-but-2-enoic acid trans-(4-{2-[4-(2,3-dihydro-furo[3,2-c]pyridin-4-yl)-piperazin-1-yl]-ethyl}-cyclohexyl)-amide] | 198 nM | 15.4 nM | 16.2 nM | 164.5 °C | – |
